Experimental data: patent US20050282154A1 (priority 2003, published 2005)

Columns and labels:
[1] = tested on: S1 domain of the SARS-CoV S protein; format: binding
[2] = tested on: SARS-CoV S protein-expressing 293 T cells and ACE-2-expressing 293 T cells; format: cell-based, human

For soluble ACE-2, the “blocking of association of S1-Ig (S1 domain) with Vero E6 cells” value [1] was “blocked association” and the “blocking of syncytia formation mediated by the SARS-CoV S protein” value [2] was “partially blocked”.
